{"source": "patent US20060183202A1", "about": "(priority 2003, published 2006)", "key": {"[1]": {"target": "DOGT1 (UGT73C5) (Arabidopsis thaliana, UniProt Q9ZQ94)", "sequence (Q9ZQ94 whole entry, looked up)": "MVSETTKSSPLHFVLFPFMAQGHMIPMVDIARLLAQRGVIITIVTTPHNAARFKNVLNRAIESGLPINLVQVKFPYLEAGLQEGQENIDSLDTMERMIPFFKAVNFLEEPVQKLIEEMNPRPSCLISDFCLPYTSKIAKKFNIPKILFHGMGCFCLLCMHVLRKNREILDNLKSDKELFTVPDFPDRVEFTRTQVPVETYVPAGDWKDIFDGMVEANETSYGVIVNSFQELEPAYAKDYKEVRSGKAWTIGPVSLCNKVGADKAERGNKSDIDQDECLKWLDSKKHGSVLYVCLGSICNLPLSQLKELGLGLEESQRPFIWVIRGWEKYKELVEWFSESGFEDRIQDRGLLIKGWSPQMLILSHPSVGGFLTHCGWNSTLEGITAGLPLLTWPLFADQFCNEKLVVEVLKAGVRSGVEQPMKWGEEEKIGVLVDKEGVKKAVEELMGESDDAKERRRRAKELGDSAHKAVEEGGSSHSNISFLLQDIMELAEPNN", "assay_type": "cell-based"}, "[2]": {"target": "UGT73C4 (Arabidopsis thaliana, UniProt Q9ZQ97)", "sequence (Q9ZQ97 whole entry, looked up)": "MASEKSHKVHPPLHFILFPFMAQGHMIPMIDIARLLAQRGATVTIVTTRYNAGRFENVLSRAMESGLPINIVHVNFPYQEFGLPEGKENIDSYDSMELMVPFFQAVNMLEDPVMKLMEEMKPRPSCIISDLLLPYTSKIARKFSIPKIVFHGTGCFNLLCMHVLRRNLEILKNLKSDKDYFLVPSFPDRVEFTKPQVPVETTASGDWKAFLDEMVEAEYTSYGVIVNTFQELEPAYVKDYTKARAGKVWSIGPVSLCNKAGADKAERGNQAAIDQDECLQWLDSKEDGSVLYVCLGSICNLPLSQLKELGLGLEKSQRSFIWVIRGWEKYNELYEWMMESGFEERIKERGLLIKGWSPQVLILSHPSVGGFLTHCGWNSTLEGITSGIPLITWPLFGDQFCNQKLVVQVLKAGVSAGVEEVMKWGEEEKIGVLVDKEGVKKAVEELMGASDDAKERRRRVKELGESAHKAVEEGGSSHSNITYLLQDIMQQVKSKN", "assay_type": "cell-based"}, "[3]": {"test_system": "laboratory animals", "conditions": "in vivo; cited from earlier work"}, "[4]": {"test_system": "A. thaliana wild-type Col-0", "conditions": "in vivo"}, "[5]": {"test_system": "Saccharomyces cerevisiae strain YZGA452", "assay_type": "cell-based"}, "[6]": {"test_system": "DOGT1 mRNA expression", "parameters": "species or system Arabidopsis thaliana", "conditions": "in vivo"}, "[7]": {"test_system": "DOGT1 promoter (PDOGT1-GUS)", "parameters": "species or system Arabidopsis thaliana", "conditions": "in vivo"}, "[8]": {"test_system": "wheat ribosomes", "assay_type": "biochemical"}, "[9]": {"test_system": "coleoptile elongation", "conditions": "in vivo; cited from earlier work"}}}
{"compound": "CC(=O)O[C@@H]1C[C@]2(C)[C@@]3(CO)[C@H](O)C(=O)C(C)=C[C@H]3O[C@H]1[C@@]21CO1", "note": "[3-ADON, 3-acetyl-deoxynivalenol]", "values": [{"measurement": "resistance to the toxin conferred by DOGT1 expression (detoxification)", "setting": "[1]", "result": "inability to confer resistance"}, {"measurement": "resistance to the toxin conferred by UGT73C4 expression (detoxification)", "setting": "[2]", "result": "failed to confer resistance"}, {"measurement": "fold less toxic than DON to laboratory animals", "setting": "[3]", "result": "about 2 fold"}]}
{"compound": "CC(=O)OC[C@]12[C@H](O)C(=O)C(C)=C[C@H]1O[C@@H]1[C@H](O)C[C@@]2(C)[C@]12CO2", "note": "[15-ADON, 15-acetyl-deoxynivalenol]", "values": [{"measurement": "resistance to the toxin conferred by DOGT1 expression (detoxification)", "setting": "[1]", "result": "protection"}, {"measurement": "resistance to the toxin conferred by UGT73C4 expression (detoxification)", "setting": "[2]", "result": "had the ability to detoxify"}]}
{"compound": "CC1=C[C@H]2O[C@@H]3[C@H](O)C[C@](C)([C@@]2(CO)[C@H](O)C1=O)[C@]31CO1", "note": "[DON, deoxynivalenol]", "values": [{"measurement": "main phytotoxic effect on wild-type plants", "setting": "[4]", "result": "slow germination"}, {"measurement": "concentration sufficient to completely inhibit growth of yeast", "setting": "[5]", "result": 180, "unit": "ppm"}, {"measurement": "induction of DOGT1 transcript (RT-PCR)", "setting": "[6]", "result": "DON inducible expression"}, {"measurement": "resistance to the toxin conferred by DOGT1 expression (detoxification)", "setting": "[1]", "result": "protects against"}, {"measurement": "resistance to the toxin conferred by UGT73C4 expression (detoxification)", "setting": "[2]", "result": "had the ability to detoxify"}, {"measurement": "induction of PDOGT1-GUS reporter expression", "setting": "[7]", "result": "induce"}, {"measurement": "luminescence remaining (luciferase activity of control)", "setting": "[8]", "result": 3.1, "unit": "%"}, {"measurement": "reporter enzyme (luciferase) activity compared to the control (100%)", "setting": "[8]", "result": 36.8, "unit": "%"}]}
{"compound": "CC1=CC2OC3C(O[C@@H]4O[C@H](CO)[C@@H](O)[C@H](O)[C@H]4O)CC(C)(C34CO4)C2(CO)C(O)C1=O", "note": "(stereo partly drawn) [DON-3-glucoside, 3-β-D-Glucopyranosyl-4-deoxynivalenol]", "values": [{"measurement": "inhibition of luciferase activity", "setting": "[8]; 20 µM", "result": 8, "unit": "%"}]}
{"compound": "CC(=O)OC[C@]12C[C@H](OC(=O)CC(C)C)C(C)=C[C@H]1O[C@@H]1[C@H](O)[C@@H](O)[C@@]2(C)[C@]12CO2", "note": "[HT-2-toxin, HT-2 toxin]", "values": [{"measurement": "resistance to the toxin conferred by UGT73C4 expression (detoxification)", "setting": "[2]", "result": "failed to confer resistance"}]}
{"compound": "CC/C=C\\C[C@H]1C(=O)CC[C@@H]1CC(=O)O", "note": "[JA, jasmonic acid]", "values": [{"measurement": "induction of DOGT1 transcript (RT-PCR)", "setting": "[6]", "result": "weak induction"}, {"measurement": "induction of PDOGT1-GUS reporter expression", "setting": "[7]", "result": "No induction"}]}
{"compound": "CC1=C[C@H]2O[C@@H]3[C@H](O)[C@@H](O)[C@](C)([C@@]2(CO)[C@H](O)C1=O)[C@]31CO1", "note": "[NIV, nivalenol]", "values": [{"measurement": "resistance to the toxin conferred by DOGT1 expression (detoxification)", "setting": "[1]", "result": "lack of activity"}, {"measurement": "resistance to the toxin conferred by UGT73C4 expression (detoxification)", "setting": "[2]", "result": "failed to confer resistance"}, {"measurement": "toxicity compared with DON in animal systems", "setting": "[3]", "result": "higher toxicity"}]}
{"compound": "O=C(O)c1ccccc1O", "note": "[SA, salicylic acid]", "values": [{"measurement": "induction of DOGT1 transcript (RT-PCR)", "setting": "[6]", "result": "rather weakly"}, {"measurement": "induction of PDOGT1-GUS reporter expression", "setting": "[7]", "result": "No induction"}]}
{"compound": "C/C=C\\C(=O)O[C@@H]1C[C@H]2O[C@@H]3C=C(C)C(=O)C[C@]3(C)[C@]1(C)[C@]21CO1", "note": "[TTC, trichothecin]", "values": [{"measurement": "resistance to the toxin conferred by UGT73C4 expression (detoxification)", "setting": "[2]", "result": "failed to confer resistance"}]}
{"compound": "Acetyl-DON [ADON]", "values": [{"measurement": "overall toxicity compared with the non-acetylated form (DON)", "setting": "[9]", "result": "equivalent"}]}
{"compound": "diacetoxyscirpenol [DAS]", "values": [{"measurement": "resistance to the toxin conferred by UGT73C4 expression (detoxification)", "setting": "[2]", "result": "failed to confer resistance"}]}
{"compound": "veruccarin A [VA]", "values": [{"measurement": "resistance to the toxin conferred by UGT73C4 expression (detoxification)", "setting": "[2]", "result": "failed to confer resistance"}]}
